ChEMBL document CHEMBL4002643, “Tubulin-binding dibenz[c,e]oxepines: Part 2. Structural variation and biological evaluation as tumour vasculature disrupting agents” (Bioorg Med Chem, 2017)

What was measured:
[1] = Inhibition of porcine tubulin assembly measured for 30 mins by UV/visible spectrophotometric method; set-up: species or system Sus scrofa
[2] = system: A549; test: Cytotoxicity against human A549 cells assessed as growth inhibition after 48 hrs by SRB assay; type: functional; details: A549, 48 h
[3] = system: SF-268; test: Cytotoxicity against human SF268 cells assessed as growth inhibition after 48 hrs by SRB assay; type: functional; details: SF-268, 48 h
[4] = system: MDA-MB-435; test: Cytotoxicity against human MDA-MB-435 cells assessed as growth inhibition after 48 hrs by SRB assay; type: functional; details: MDA-MB-435, 48 h
[5] = system: CCRF-CEM; test: Cytotoxicity against human CCRF-CEM cells assessed as growth inhibition after 48 hrs by SRB assay; type: functional
[6] = system: TK-10; test: Cytotoxicity against human TK10 cells assessed as growth inhibition after 48 hrs by SRB assay; type: functional; details: TK-10, 48 h
[7] = system: SK-OV-3; test: Cytotoxicity against human SKOV3 cells assessed as growth inhibition after 48 hrs by SRB assay; type: functional; details: SK-OV-3, 48 h
[8] = system: HOP-62; test: Cytotoxicity against human HOP62 cells assessed as growth inhibition after 48 hrs by SRB assay; type: functional; details: HOP-62, 48 h
[9] = system: UACC-62; test: Cytotoxicity against human UACC62 cells assessed as growth inhibition after 48 hrs by SRB assay; type: functional; details: UACC-62, 48 h
[10] = system: CAKI-1; test: Cytotoxicity against human Caki1 cells assessed as growth inhibition after 48 hrs by SRB assay; type: functional; details: CAKI-1, 48 h
[11] = system: SF-295; test: Cytotoxicity against human SF295 cells assessed as growth inhibition after 48 hrs by SRB assay; type: functional; details: SF-295, 48 h
[12] = system: EKVX; test: Cytotoxicity against human EKVX cells assessed as growth inhibition after 48 hrs by SRB assay; type: functional
[13] = system: PC-3; test: Cytotoxicity against human PC3 cells assessed as growth inhibition after 48 hrs by SRB assay; type: functional; details: PC-3, 48 h
[14] = system: SK-MEL-5; test: Cytotoxicity against human SK-MEL-5 cells assessed as growth inhibition after 48 hrs by SRB assay; type: functional; details: SK-MEL-5, 48 h
[15] = system: K562; test: Cytotoxicity against human K562 cells assessed as growth inhibition after 5 days by MTT assay; type: functional, cell-based; details: K562, 120 h
[16] = system: DU-145; test: Cytotoxicity against human DU145 cells assessed as growth inhibition after 48 hrs by SRB assay; type: functional; details: DU-145, 48 h
[17] = system: SK-MEL-2; test: Cytotoxicity against human SK-MEL-2 cells assessed as growth inhibition after 48 hrs by SRB assay; type: functional; details: SK-MEL-2, 48 h
[18] = system: NCI-H322M; test: Cytotoxicity against human NCI-H322M cells assessed as growth inhibition after 48 hrs by SRB assay; type: functional
[19] = system: HCT-15; test: Cytotoxicity against human HCT15 cells assessed as growth inhibition after 48 hrs by SRB assay; type: functional; details: HCT-15, 48 h
[20] = system: Malme-3M; test: Cytotoxicity against human MALME-3M cells assessed as growth inhibition after 48 hrs by SRB assay; type: functional
[21] = system: HCC 2998; test: Cytotoxicity against human HCC2998 cells assessed as growth inhibition after 48 hrs by SRB assay; type: functional; details: HCC 2998, 48 h
[22] = system: HL-60(TB); test: Cytotoxicity against human HL-60(TB) cells assessed as growth inhibition after 48 hrs by SRB assay; type: functional; details: HL-60, 48 h
[23] = system: SNB-75; test: Cytotoxicity against human SNB75 cells assessed as growth inhibition after 48 hrs by SRB assay; type: functional; details: SNB-75, 48 h
[24] = system: 786-0; test: Cytotoxicity against human 786-0 cells assessed as growth inhibition after 48 hrs by SRB assay; type: functional; details: 786-0, 48 h
[25] = system: MDA-MB-468; test: Cytotoxicity against human MDA-MB-468 cells assessed as growth inhibition after 48 hrs by SRB assay; type: functional; details: MDA-MB-468, 48 h
[26] = system: SF-539; test: Cytotoxicity against human SF539 cells assessed as growth inhibition after 48 hrs by SRB assay; type: functional; details: SF-539, 48 h
[27] = system: SN12C; test: Cytotoxicity against human SN12C cells assessed as growth inhibition after 48 hrs by SRB assay; type: functional
[28] = system: NCI-H460; test: Cytotoxicity against human NCI-H460 cells assessed as growth inhibition after 48 hrs by SRB assay; type: functional; details: NCI-H460, 48 h
[29] = system: OVCAR-4; test: Cytotoxicity against human OVCAR4 cells assessed as growth inhibition after 48 hrs by SRB assay; type: functional; details: OVCAR-4, 48 h
[30] = system: U-251; test: Cytotoxicity against human U251 cells assessed as growth inhibition after 48 hrs by SRB assay; type: functional; details: U-251, 48 h
[31] = system: NCI-H226; test: Cytotoxicity against human NCI-H226 cells assessed as growth inhibition after 48 hrs by SRB assay; type: functional; details: NCI-H226, 48 h
[32] = system: HCT-116; test: Cytotoxicity against human HCT116 cells assessed as growth inhibition after 48 hrs by SRB assay; type: functional; details: HCT-116, 48 h
[33] = system: RXF 393; test: Cytotoxicity against human RXF393 cells assessed as growth inhibition after 48 hrs by SRB assay; type: functional; details: RXF 393, 48 h
[34] = system: SW-620; test: Cytotoxicity against human SW620 cells assessed as growth inhibition after 48 hrs by SRB assay; type: functional; details: SW-620, 48 h
[35] = system: M14; test: Cytotoxicity against human M14 cells assessed as growth inhibition after 48 hrs by SRB assay; type: functional; details: M14, 48 h
[36] = system: KM12; test: Cytotoxicity against human KM12 cells assessed as growth inhibition after 48 hrs by SRB assay; type: functional; details: KM12, 48 h
[37] = system: K562; test: Cytotoxicity against human K562 cells assessed as growth inhibition after 48 hrs by SRB assay; type: functional; details: K562, 48 h
[38] = system: LOX IMVI; test: Cytotoxicity against human LOXIMVI cells assessed as growth inhibition after 48 hrs by SRB assay; type: functional
[39] = system: A498; test: Cytotoxicity against human A498 cells assessed as growth inhibition after 48 hrs by SRB assay; type: functional; details: A498, 48 h
[40] = system: Hs-578T; test: Cytotoxicity against human Hs 578T cells assessed as growth inhibition after 48 hrs by SRB assay; type: functional
[41] = system: MDA-MB-231; test: Cytotoxicity against human MDA-MB-231 cells assessed as growth inhibition after 48 hrs by SRB assay; type: functional; details: MDA-MB-231, 48 h
[42] = system: NCI-H522; test: Cytotoxicity against human NCI-H522 cells assessed as growth inhibition after 48 hrs by SRB assay; type: functional; details: NCI-H522, 48 h
[43] = system: SNB-19; test: Cytotoxicity against human SNB19 cells assessed as growth inhibition after 48 hrs by SRB assay; type: functional; details: SNB-19, 48 h
[44] = system: OVCAR-8; test: Cytotoxicity against human OVCAR8 cells assessed as growth inhibition after 48 hrs by SRB assay; type: functional; details: OVCAR-8, 48 h
[45] = system: SR; test: Cytotoxicity against human SR cells assessed as growth inhibition after 48 hrs by SRB assay; type: functional
[46] = system: NCI-H23; test: Cytotoxicity against human NCI-H23 cells assessed as growth inhibition after 48 hrs by SRB assay; type: functional; details: NCI-H23, 48 h
[47] = system: HOP-92; test: Cytotoxicity against human HOP92 cells assessed as growth inhibition after 48 hrs by SRB assay; type: functional; details: HOP-92, 48 h
[48] = system: NCI/ADR-RES; test: Cytotoxicity against human NCI-ADR-RES cells assessed as growth inhibition after 48 hrs by SRB assay; type: functional
[49] = system: UACC-257; test: Cytotoxicity against human UACC257 cells assessed as growth inhibition after 48 hrs by SRB assay; type: functional; details: UACC-257, 48 h
[50] = system: MCF7; test: Cytotoxicity against human MCF7 cells assessed as growth inhibition after 48 hrs by SRB assay; type: functional; details: MCF7, 48 h
[51] = system: BT-549; test: Cytotoxicity against human BT549 cells assessed as growth inhibition after 48 hrs by SRB assay; type: functional; details: BT-549, 48 h
[52] = system: RPMI-8226; test: Cytotoxicity against human RPMI8226 cells assessed as growth inhibition after 48 hrs by SRB assay; type: functional; details: RPMI-8226, 48 h
[53] = system: IGROV-1; test: Cytotoxicity against human IGROV1 cells assessed as growth inhibition after 48 hrs by SRB assay; type: functional; details: IGROV-1, 48 h
[54] = system: MOLT-4; test: Cytotoxicity against human MOLT4 cells assessed as growth inhibition after 48 hrs by SRB assay; type: functional; details: MOLT-4, 48 h
[55] = system: OVCAR-3; test: Cytotoxicity against human OVCAR3 cells assessed as growth inhibition after 48 hrs by SRB assay; type: functional; details: OVCAR-3, 48 h
[56] = system: T47D; test: Cytotoxicity against human T47D cells assessed as growth inhibition after 48 hrs by SRB assay; type: functional
[57] = system: UO-31; test: Cytotoxicity against human UO31 cells assessed as growth inhibition after 48 hrs by SRB assay; type: functional; details: UO-31, 48 h
[58] = system: COLO 205; test: Cytotoxicity against human COLO205 cells assessed as growth inhibition after 48 hrs by SRB assay; type: functional; details: COLO 205, 48 h

## COc1cc2c(c(OC)c1OC)-c1ccc(OC)c(=O)cc1[C@@H](NC(C)=O)CC2 [COLCHICINE]
[1]
  IC50: 2000 nM

## COc1cc2c(c(OC)c1OC)-c1cc3c(cc1COC2)OCO3
[2]
  GI50: 440 nM
[3]
  GI50: 1320 nM
[4]
  GI50: 50 nM
[5]
  GI50: 350 nM
[6]
  GI50: 5130 nM
[7]
  GI50: 470 nM
[8]
  GI50: 690 nM
[9]
  GI50: 790 nM
[10]
  GI50: 56200 nM
[11]
  GI50: 330 nM
[12]
  GI50: 780 nM
[13]
  GI50: 540 nM
[14]
  GI50: 210 nM
[15]
  IC50: 85000 nM
[16]
  GI50: 370 nM
[17]
  GI50: 560 nM
[18]
  GI50: 2000 nM
[19]
  GI50: 480 nM
[20]
  GI50: > 100000 nM
[21]
  GI50: 490 nM
[22]
  GI50: 390 nM
[23]
  GI50: 460 nM
[24]
  GI50: 500 nM
[25]
  GI50: 170 nM
[26]
  GI50: 350 nM
[27]
  GI50: 1050 nM
[28]
  GI50: 380 nM
[29]
  GI50: 2190 nM
[30]
  GI50: 480 nM
[31]
  GI50: 2750 nM
[32]
  GI50: 370 nM
[1]
  IC50: > 10000 nM
[33]
  GI50: 200 nM
[34]
  GI50: 400 nM
[35]
  GI50: 230 nM
[36]
  GI50: 360 nM
[37]
  GI50: 210 nM
[38]
  GI50: 870 nM
[39]
  GI50: 450 nM
[40]
  GI50: 430 nM
[41]
  GI50: 1200 nM
[42]
  GI50: 390 nM
[43]
  GI50: 680 nM
[44]
  GI50: 520 nM
[45]
  GI50: 170 nM
[46]
  GI50: 790 nM
[47]
  GI50: 7080 nM
[48]
  GI50: 360 nM
[49]
  GI50: 3390 nM
[50]
  GI50: 400 nM
[51]
  GI50: 540 nM
[52]
  GI50: 500 nM
[53]
  GI50: 950 nM
[54]
  GI50: 470 nM
[55]
  GI50: 250 nM
[56]
  GI50: 25700 nM
[57]
  GI50: 3980 nM
[58]
  GI50: 340 nM

## COc1ccc2c(c1OS(=O)(=O)C(F)(F)F)COCc1cc(OC)c(OC)c(OC)c1-2
[15]
  IC50: 250 nM
[1]
  IC50: 15000 nM

## COc1cc2c(c(OC)c1OC)-c1ccc(N)cc1COC2
[15]
  IC50: 10000 nM
[1]
  IC50: > 10000 nM
